Laboratory results: patent publication US12410124B2 (priority 2019, dated 2025)
Where two headings read alike, the source gives them in different places.

What was measured:
midbrain p-α-s = experiment: Midbrain p-α-s protein expression in MPTP Parkinson's disease model mouse (western-blotting); format: in vivo; conditions: midbrain total protein, GAPDH internal reference, gavage 21 consecutive days after MPTP modeling
Description: (§1) Neurotoxins can be used to establish PD animal models. Currently, 1-methyl-4-phenyl-1,2,3,6-tetrahydropyridine (MPTP) is the sole synthetic toxin which is recognized to induce PD symptoms in human and non-human primates and in mice. Using MPTP subacute modeling method, C57BL/6J male mice were intraperitoneally injected with MPTP 30 mg/kg, once a day for 5 consecutive days. The experiment animals were divided into blank control group, MPTP model group, and compound treatment group. For the […] compound treatment group, the compound was administrated by gavage for 21 consecutive days after the completion of modeling; for the MPTP model group, the normal saline was administrated by gavage for 21 consecutive days after the completion of modeling; and for the blank control group, the normal saline was first intraperitoneally injected for 5 days, and then administrated by gavage for 21 days.
Alpha-synuclein is an “unfolded protein” in its natural state. It exists in a monomeric form, and participates in the physiological functions such as the release of neurotransmitters, the establishment of synaptic junctions, and the regulation of synaptic plasticity. Under pathological conditions, more than 90% of alpha-synuclein is phosphorylated at serine of position 129 and converted into phosphorylated alpha-synuclein (p-α-s), thereby forming Lewy bodies. The formation of Lewy bodies is one of the main pathological manifestations and pathological mechanisms for Parkinson's disease, and plays an important role in the formation and development of PD. The detection of the p-α-s expression in the midbrain and substantia nigra of PD model mice can evaluate the neuroprotective activity of the compound.
(§2) Half of experiment mice in each group were taken to extract the total midbrain protein, and the change in the midbrain P-α-s protein expression was determined by western-blotting using GAPDH as the internal reference. The experiment included blank control group, MPTP model group, positive control group (caffeic acid phenethyl ester, CAPE), prototype control group (styryl sulfone compounds 3B, 3C, 3D, and 3G, whose structures are shown as above), and target compound group.

midbrain pp38 = experiment: Midbrain pp38 protein expression in MPTP Parkinson's disease model mouse (western-blotting); format: in vivo; conditions: midbrain total protein, GAPDH internal reference, gavage 21 days after MPTP modeling
Description: as §1
The p38 mitogen-activated protein kinase (p38 MAPK) is expressed in both neurons and glial cells, and is the intersection point of neuron-glial cell network information regulations. The activation of p38 signaling pathway is an important initiator of neuronal degeneration, which continuously induces the apoptosis of dopaminergic neurons in multiple ways. It has become a research hotspot for the treatment of PD. Studies have shown that the protective mechanism of CAPE against the death of primary cultured cerebellar granule neurons induced by glutamate lies in inhibiting the activation of p38 phosphorylation and in turn inhibiting the activation of the caspase 3 apoptotic pathway to prevent neuronal apoptosis. Therefore, the MPTP-induced PD mouse model can be used to investigate the inhibitory effect of the target compounds on the activation of p38 phosphorylation on the overall animal level.
as §2, with “phosphorylated p38” for “P-α-s”

GCLC = experiment: Midbrain GCLC expression in MPTP Parkinson's disease model mouse (western blot); format: in vivo; conditions: for Expression (GCLC/GAPDH): midbrain, MPTP Parkinson's disease model mouse, western blot
Description: as §1
Oxidative stress is an important pathogenic mechanism of PD. Dopaminergic neurons are more sensitive to oxidative stress and are more susceptible to oxidative stress damage. Glutathione (GSH) is an important antioxidant substance in the cell, and glutamate cysteine ligase (GCL) is the rate-limiting enzyme for GSH synthesis, which is composed of catalytic subunit (GCLC) and regulatory subunit (GCLM). The increase of GCLC expression can promote the synthesis of GSH and enhance the ability of tissue cells against oxidative stress. GCL, a phase II enzyme, plays an important protective role by catalyzing the conversion of free radicals into non-toxic products and increasing their water solubility to facilitate the elimination of free radicals, and maintain the redox balance in the body. It plays an important role in the process of protecting cells against oxidative stress damage. The activation of p38 protein phosphorylation has a negative regulatory effect on phase II enzymes. […] Using GCLC as an indicator, the inhibitory effect of the target compounds on MPTP-induced oxidative stress damage in PD mice can be investigated.
GCLC is expressed in astrocytes, microglial cells, and neurons. The total proteins of the midbrain tissue of mice in each experiment group were extracted, to determine the expression of phase II enzyme GCLC in the midbrain of mice by western blot using GAPDH as the internal reference. The experiment included blank control group, MPTP model group, positive control group (caffeic acid phenethyl ester, CAPE), prototype control group (styryl sulfone compounds 3B, 3C, 3D), and 3G, whose structures are shown as above), and target compound group.

[1] = molecular target: acetylcholinesterase (AchE) (Homo sapiens, UniProt P22303); experiment: biochemical
Description: The modified Ellman method was used to determine the inhibitory activity on acetylcholinesterase. The principle lies in that acetylthiocholine iodide is decomposed under the action of acetylcholinesterase (AchE) to generate thiocholine. The thiocholine is quickly reacted with DTNB as the colour-developing agent to generate a yellow substance with light absorption at 405 nm. To a 96-well microplate, 50 μl of enzyme reaction buffer, 125 μl of DTNB (3 mM), 25 μl of test sample or positive control drug, and 25 μl of AchE (0.2 U/ml) were successively added. After incubation at room temperature for 5 min, 25 μl of ATCI (15 mM) was added. After incubation at room temperature for 8 min, the absorbance value was determined at 405 nm with a microplate reader. A blank control group without enzyme (25 μl PBS instead of the sample to be tested) was also established.

[2] = acetylcholinesterase, modified Ellman method, read-out: IC50

Sequence of acetylcholinesterase (AchE) (P22303 32-614, species assumed): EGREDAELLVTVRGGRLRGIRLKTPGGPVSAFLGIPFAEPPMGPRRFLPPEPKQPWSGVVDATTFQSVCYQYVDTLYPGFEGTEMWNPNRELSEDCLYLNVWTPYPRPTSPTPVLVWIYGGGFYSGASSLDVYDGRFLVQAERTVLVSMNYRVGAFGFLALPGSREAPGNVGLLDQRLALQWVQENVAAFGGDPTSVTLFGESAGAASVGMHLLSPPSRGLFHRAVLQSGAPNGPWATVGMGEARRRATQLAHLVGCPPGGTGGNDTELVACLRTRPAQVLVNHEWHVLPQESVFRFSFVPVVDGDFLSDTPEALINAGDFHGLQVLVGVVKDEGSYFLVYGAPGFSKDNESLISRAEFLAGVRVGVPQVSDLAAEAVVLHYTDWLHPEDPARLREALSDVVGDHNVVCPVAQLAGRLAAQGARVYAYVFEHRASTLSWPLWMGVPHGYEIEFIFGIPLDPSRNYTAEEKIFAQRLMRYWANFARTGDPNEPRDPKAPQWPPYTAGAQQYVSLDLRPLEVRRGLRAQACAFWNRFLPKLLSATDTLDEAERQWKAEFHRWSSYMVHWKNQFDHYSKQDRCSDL

Structure (SMILES)	Expression (p-α-s/GAPDH) (midbrain p-α-s)	Expression (pp38/GAPDH) (midbrain pp38)	Expression (GCLC/GAPDH) (GCLC)	IC50 [1, 2] [µM]	IC50 [1] [µM]	midbrain GCLC expression compared with the styryl sulfone prototype compounds (GCLC)
CC(C)(C)c1ccc(CS(=O)(=O)/C=C/c2ccc(O)c(O)c2)cc1 [Compound 3G, (E)-4-{2-[(4-t-butylphenyl)mesyl]ethenyl}benzene-1,2-diol, reference compound]	0.61 ± 0.08	0.69 ± 0.22	0.57 ± 0.09	> 100		
Cc1ccc(S(=O)(=O)Oc2ccc(CS(=O)(=O)/C=C/c3ccc(OS(=O)(=O)c4ccc(C)cc4)c(OC(=O)N(C)S(=O)(=O)c4ccc(C)cc4)c3)cc2)cc1 [Compound S6-6, (E)-2-(N-methyl-N-p-tosylcarbamoyloxy)-4-{2-[(4-p-tosyloxyphenyl)mesyl]ethenyl}phenyl p-toluenesulfonate]	0.28 ± 0.06	0.27 ± 0.05	1.29 ± 0.08		15.6 ± 3.07	
CCN(CC)C(=O)Oc1ccc(/C=C/S(=O)(=O)Cc2ccc(C(F)(F)F)cc2)cc1OC(=O)N(CC)CC [Compound B1-1, (E)-4-{2-[(4-trifluoromethylphenyl)mesyl]ethenyl}-1,2-phenylenebis(diethylcarbamate)]	0.23 ± 0.12	0.37 ± 0.12	1.17 ± 0.06	13.3 ± 2.85		significantly higher
CC[Si](CC)(Oc1ccc(C(Cl)S(=O)(=O)/C=C/c2ccc(OC(=O)N3CC(C)OC(C)C3)c(OC(=O)c3cccc(Cl)c3OC)c2)cc1)c1ccccc1 (centres unmarked) [Compound R1-5, (E)-4-{2-[4-(diethylphenylsiloxy)phenylchloromesyl]ethenyl}-2-(3-chloro-2-methoxybenzoyloxy)phenyl-2,6-dimethylmorpholine-4-carboxylate]	0.46 ± 0.11	0.44 ± 0.07	1.02 ± 0.09	27.5 ± 3.49		
